Assay results as given in patent US9387160B2, “Composition and method of treating skin conditions” (Johnson & Johnson Consumer Holdings France, priority 2008, dated 2016).

Columns and labels:
[1] = Relative polarity index (RPI = log K, octanol/water partition coefficient); format: physicochemical; details: difference between Emollient RPI and Retinoid RPI
Source text: The relative polarity index (RPI) of an emollient is well known by the one skilled in the art. The methodology for its calculation is described in the article published by Wiesher et al. 2004 Int J. Cosmetic Science. 26, 173-182. RPI can be calculated from the octanol/water partition coefficient (K) with: RPI=log K. Partition coefficient estimations K have been published, for example in: • Leo A, Hansch C, and Elkins D (1971). “Partition coefficients and their uses”. Chem Rev 71 (6): 525-616. • Wilkinson, Andrew M.; McNaught, Alan D. (1997). “Partition Coefficient”. Compendium of Chemical Terminology: IUPAC Recommendations. Oxford: Blackwell Science. doi:10.1351/goldbook. ISBN 0-86542-684-8. http://goldbook.iupac.org/P0447.html and • Sangster, James (1997). Octanol-Water Partition Coefficients: Fundamentals and Physical Chemistry, Vol. 2 of Wiley Series in Solution Chemistry. Chichester: John Wiley & Sons Ltd. pp. 178 pages. The RPI of retinol is approximatively 1. The RPI of retinal and retinol esters are well-known by the one skilled in the art and are similar to RPI of retinol. The net RPI of an emollient to the retinoid is the difference between the Emollient RPI and the Retinoid RPI. The net RPI of a composition to the retinoid is the difference between the Composition RPI and the Retinoid RPI. […]

[2] = RPI=log K, octanol/water; cited from earlier work

Row | Compound | net relative polarity index to retinol [1] | RPI (relative polarity index) [2]
1 | PPG15 stearyl ether | having the same polarity as retinol | –
2 | CCCCCCCCCCCCCC(C)C [isohexadecane] | 9.11 | –
3 | CC1=C(/C=C/C(C)=C/C=C/C(C)=C/CO)C(C)(C)CCC1 [retinol] | – | ~1
